Reference: patent publication US20160320414A1, “Assay for Detection of Transient Intracellular CA2+” (Rajiv Gandhi Centre for Biotechnology, priority 2007, published 2016)

Assays:
Format in all cases: cell-based
[1] = target: T1, AMPA-type glutamate receptor GluR4 (Rattus norvegicus, UniProt P19493); test: GluR4 receptor activity assay (GFP-CaMKII translocation to MLS-NR2B)
T1 construct: expressed in transfected cells; host or cells: HEK-293
Protocol: HEK-293 cells were cotransfected with GluR4 (pRK5-GluR4, about 0.33 μg/well), MLS-NR2B (pSGH-MLS-NR2B, about 0.33 μg/well) and GFP-CaMKII (pEGFP-CaMKII, about 0.1 μg/well) using lipofectamine reagent. During growth, the medium was supplemented with 50 μM CNQX (inhibitor of AMPA receptor). After 48 hours, the transfected cells were subjected to GluR4 activity assay. The growth medium was removed and the cells were washed twice with Ca^2+ and Mg free HBSS containing 2 mM HEPES and 400 μM EGTA. The GluR4 receptor was activated with HBSS solution containing 10 μM glutamate with or without 2 mM Ca^2+ for about 5 minutes. The inhibitor, CNQX (50 μM), when used, was preincubated for 3 minutes with cells in Ca^2+ and Mg^2+-free HBSS followed by activation using the components as described above with 50 μM CNQX. Cells were then fixed and were mounted onto glass slides.

[2] = target: T2, NMDA receptor formed of NR1 and NR2B subunits (Rattus norvegicus, UniProt P35439+Q00960); test: NMDA receptor activity assay (GFP-α-CaMKII translocation signal); details: HEK-293 cells transfected with NR1, NR2B and GFP-α-CaMKII; for Ca2+ influx / translocation of GFP-α-CaMKII to NR2B upon receptor activation: glutamate 10 μM and glycine 2 μM with 2 mM CaCl2, about 5 minutes, no signal without extracellular Ca2+
T2 construct: expressed in transfected cells; host or cells: HEK-293
T2 sequence (Q00960 27-1482, other chains not shown): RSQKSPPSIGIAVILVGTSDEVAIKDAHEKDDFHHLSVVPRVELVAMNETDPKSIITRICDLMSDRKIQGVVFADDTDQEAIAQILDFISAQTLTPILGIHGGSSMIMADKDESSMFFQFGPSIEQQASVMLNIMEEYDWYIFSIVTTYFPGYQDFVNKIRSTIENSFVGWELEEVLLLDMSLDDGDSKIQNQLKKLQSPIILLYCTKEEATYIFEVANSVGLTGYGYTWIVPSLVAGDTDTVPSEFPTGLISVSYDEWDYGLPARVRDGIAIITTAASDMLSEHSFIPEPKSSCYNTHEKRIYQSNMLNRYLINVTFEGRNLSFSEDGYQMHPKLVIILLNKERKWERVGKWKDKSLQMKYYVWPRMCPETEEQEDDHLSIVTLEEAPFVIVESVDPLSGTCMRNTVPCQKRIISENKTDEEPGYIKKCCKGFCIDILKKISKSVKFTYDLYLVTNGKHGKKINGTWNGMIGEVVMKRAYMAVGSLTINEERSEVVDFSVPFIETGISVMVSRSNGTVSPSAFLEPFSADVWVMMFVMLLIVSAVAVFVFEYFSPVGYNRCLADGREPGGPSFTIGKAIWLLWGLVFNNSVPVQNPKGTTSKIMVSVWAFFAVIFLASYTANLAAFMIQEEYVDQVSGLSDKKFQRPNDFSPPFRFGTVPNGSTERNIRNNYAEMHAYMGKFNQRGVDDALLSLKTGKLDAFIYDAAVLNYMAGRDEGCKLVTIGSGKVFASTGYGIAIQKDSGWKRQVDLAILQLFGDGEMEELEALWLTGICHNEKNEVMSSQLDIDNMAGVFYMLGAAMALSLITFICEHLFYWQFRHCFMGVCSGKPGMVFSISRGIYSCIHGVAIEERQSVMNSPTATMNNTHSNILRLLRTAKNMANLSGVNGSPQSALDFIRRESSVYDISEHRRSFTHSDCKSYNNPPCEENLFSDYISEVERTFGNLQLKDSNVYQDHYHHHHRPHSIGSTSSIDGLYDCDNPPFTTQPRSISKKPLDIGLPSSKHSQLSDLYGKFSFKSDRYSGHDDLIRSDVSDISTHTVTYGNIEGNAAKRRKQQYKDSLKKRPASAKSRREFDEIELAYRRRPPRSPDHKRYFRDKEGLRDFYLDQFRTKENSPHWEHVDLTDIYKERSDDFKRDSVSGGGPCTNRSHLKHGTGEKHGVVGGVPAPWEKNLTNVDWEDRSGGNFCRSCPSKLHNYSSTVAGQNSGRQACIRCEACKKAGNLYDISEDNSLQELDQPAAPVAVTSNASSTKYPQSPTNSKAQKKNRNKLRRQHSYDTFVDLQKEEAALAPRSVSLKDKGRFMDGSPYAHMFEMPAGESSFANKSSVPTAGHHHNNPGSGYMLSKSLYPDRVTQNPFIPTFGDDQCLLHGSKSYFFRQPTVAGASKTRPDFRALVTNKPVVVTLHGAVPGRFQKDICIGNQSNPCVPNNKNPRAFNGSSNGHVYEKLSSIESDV

[3] = target: T3, vanilloid receptor (TRPV1) (Rattus norvegicus, UniProt O35433); test: TRPV1 receptor activity assay (GFP-CaMKII translocation to MLS-NR2B)
T3 construct: expressed in transfected cells; host or cells: HEK-293
T3 sequence (O35433 whole entry): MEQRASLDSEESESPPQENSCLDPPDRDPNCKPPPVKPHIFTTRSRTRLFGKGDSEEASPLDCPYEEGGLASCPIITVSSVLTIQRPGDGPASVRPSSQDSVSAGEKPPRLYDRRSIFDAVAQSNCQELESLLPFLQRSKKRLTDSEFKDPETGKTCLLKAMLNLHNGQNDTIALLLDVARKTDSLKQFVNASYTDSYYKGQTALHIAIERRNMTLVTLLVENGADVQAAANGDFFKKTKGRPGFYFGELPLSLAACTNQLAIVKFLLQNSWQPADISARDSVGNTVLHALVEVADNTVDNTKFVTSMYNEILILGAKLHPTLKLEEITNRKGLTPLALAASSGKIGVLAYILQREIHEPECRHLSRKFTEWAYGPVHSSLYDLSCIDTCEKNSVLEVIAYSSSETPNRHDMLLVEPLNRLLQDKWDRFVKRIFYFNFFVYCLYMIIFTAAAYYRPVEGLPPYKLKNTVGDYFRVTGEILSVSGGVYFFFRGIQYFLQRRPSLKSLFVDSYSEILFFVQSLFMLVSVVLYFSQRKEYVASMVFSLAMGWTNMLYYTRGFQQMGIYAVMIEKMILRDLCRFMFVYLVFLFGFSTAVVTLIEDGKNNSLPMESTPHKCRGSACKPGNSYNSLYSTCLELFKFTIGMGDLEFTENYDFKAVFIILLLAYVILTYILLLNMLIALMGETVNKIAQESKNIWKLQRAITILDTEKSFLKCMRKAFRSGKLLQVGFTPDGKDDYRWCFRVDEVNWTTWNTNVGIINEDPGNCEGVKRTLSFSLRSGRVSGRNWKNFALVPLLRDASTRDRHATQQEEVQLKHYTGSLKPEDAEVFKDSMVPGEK

MLS-NR2B = test: Ionomycin-mediated Ca2+-influx, cell count of cells with GFP-clustering signal; details: HEK-293 cells with MLS-NR2B
Protocol: For transfection, 1.5×10^4 HEK-293 cells were seeded on sterile 12 mm cover slips in 24 well plates (Nunc). After 24 hrs, the cells were cotransfected with plasmid constructs encoding GFP-α-CaMKII (0.1 μg/well) and either of MLS-NR2A or MLS-NR2B (0.25 μg/well), or pRK-NR2A or pRK-NR2B (along with pRc-NR1 for expression of functional NMDA receptor) using Lipofectamine reagent. About 48 hrs following transfection, cells were washed with Hank's balanced salt solution (HBSS) containing 20 mM HEPES and 1.4 mM EGTA. The cells were then incubated with 15 μM ionomycin in the same buffer for 10 min. Subsequently the cells were incubated in the same buffer containing 2 mM CaCl2 and 3 μM ionomycin. Cells were fixed with 3.7% paraformaldehyde in PBS (Phosphate-buffered saline, 10 mM disodium hydrogen phosphate, 1.8 mM potassium dihydrogen orthophosphate, 140 mM sodium chloride, 2.7 mM potassium chloride, pH adjusted to 7.4) at different time points after addition of calcium, mounted with mountant containing DABCO (antifade) and were observed through either a simple fluorescence microscope or a confocal fluorescence microscope (TCS -SP2-AOBS from Leica).
Appearance of perinuclear granules due to mitochondrial localization of GFP-α-CaMKII is taken as the signal for binding between GFP-α-CaMKII and MLS-NR2B. […]

T1 sequence (P19493 22-902 limits assumed): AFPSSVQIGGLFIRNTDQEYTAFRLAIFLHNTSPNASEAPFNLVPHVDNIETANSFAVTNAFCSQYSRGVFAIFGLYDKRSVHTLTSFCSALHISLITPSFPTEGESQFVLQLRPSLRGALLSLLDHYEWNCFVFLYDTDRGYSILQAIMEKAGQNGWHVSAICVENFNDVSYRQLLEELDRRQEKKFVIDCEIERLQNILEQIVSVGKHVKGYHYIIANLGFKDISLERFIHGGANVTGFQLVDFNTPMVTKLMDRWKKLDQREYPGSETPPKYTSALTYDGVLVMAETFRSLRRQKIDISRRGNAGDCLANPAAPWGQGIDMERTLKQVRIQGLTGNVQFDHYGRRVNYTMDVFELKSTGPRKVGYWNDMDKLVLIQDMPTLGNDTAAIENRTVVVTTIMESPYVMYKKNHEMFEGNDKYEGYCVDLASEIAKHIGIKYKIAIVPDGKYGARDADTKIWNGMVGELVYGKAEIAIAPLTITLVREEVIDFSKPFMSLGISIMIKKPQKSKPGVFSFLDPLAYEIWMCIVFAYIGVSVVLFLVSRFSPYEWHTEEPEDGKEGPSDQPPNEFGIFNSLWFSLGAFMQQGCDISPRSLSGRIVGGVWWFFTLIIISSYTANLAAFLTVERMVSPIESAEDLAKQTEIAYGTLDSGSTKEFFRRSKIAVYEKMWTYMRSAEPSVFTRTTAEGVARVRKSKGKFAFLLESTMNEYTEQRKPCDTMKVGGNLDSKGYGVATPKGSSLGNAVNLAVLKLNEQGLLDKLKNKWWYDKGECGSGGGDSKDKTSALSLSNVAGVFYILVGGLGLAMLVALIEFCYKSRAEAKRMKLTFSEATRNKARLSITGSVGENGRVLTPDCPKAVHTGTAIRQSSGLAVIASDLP

N#Cc1cc2[nH]c(=O)c(=O)[nH]c2cc1[N+](=O)[O-] [CNQX]
Generation of the signal in presence of specific inhibitor ([1]; CNQX 50 μM, preincubated 3 minutes, then glutamate activation (FIG. 11)): could be blocked

C[C@]12N[C@H](Cc3ccccc31)c1ccccc12 [MK-801]
Signal generation in presence of NMDA receptor specific inhibitor ([2]; activated with glutamate and glycine, 1 mM AP-5 or 10 μM MK-801): blocked

COc1cc(CNC(=O)CCCC/C=C/C(C)C)ccc1O [capsaicin]
Green punctae as signal for Ca2+-channel activity of TRPV1 upon activation ([3]; HEK-293 cells cotransfected with TRPV1, GFP-CaMKII and MLS-NR2B, capsaicin 3 μM or 10 nM with 2 mM Ca2+, 5 minutes): developed green punctae

Oc1cc2c(cc1O)CN(C(=S)NCCc1ccc(Cl)cc1)CCC2 [capsazepine]
Signal generation due to activation of TRPV1 in presence of inhibitor ([3]; capsazepine 50 μM, preincubated 3 minutes, then capsaicin activation with Ca2+ (FIG. 10)): could be inhibited

N[C@@H](CCC(=O)O)C(=O)O [glutamate]
Ca2+ influx / translocation of GFP-α-CaMKII to NR2B upon receptor activation [2]: caused influx of Ca^2+
Green punctae (translocation of GFP-CaMKII to MLS-NR2B) upon receptor activation ([1]; HEK-293 cells transfected with GluR4, GFP-CaMKII and MLS-NR2B, 10 μM glutamate with 2 mM Ca2+, about 5 minutes): caused the formation of green punctae

NCC(=O)O [glycine]
Ca2+ influx / translocation of GFP-α-CaMKII to NR2B upon receptor activation [2]: caused influx of Ca^2+

T286D-CaMKII: T286D mutant form of the GFP fusion of α-CaMKII used as Ca2+ sensor
Cell count (percentage of green cells with binding signal) relative to wild-type GFP-α-CaMKII (MLS-NR2B; ionomycin-mediated Ca2+ influx (FIG. 5)): increased (more than two fold) cell count
Lowest extracellular [Ca2+] giving response (MLS-NR2B; ionomycin-mediated Ca2+ influx, different extracellular [Ca2+] (FIG. 6)): 2 nM
